Columns and labels:
Type in all cases: cell-based
MDAMB231 cells = test: crystal violet (CV) proliferation assay, MDAMB231; conditions: Homo sapiens, MDA-MB-231, MDAMB231 (PKCβ1^high, Rb^positive) 2000 cells
Method: (§1) Cell proliferation rates were determined using crystal violet assays. One thousand cells per well were plated in 96 well tissue culture plates and treated the following day with a bifunctional compound or control for 7 days in replicates of 8. Cells were fixed with 25% glutaraldehyde for 10 minutes with shaking, washed 5 times with distilled water, stained with a 1% crystal violet solution (solubilized in 25% methanol) for 10 minutes, washed again 5 times and allowed to dry. De-staining was performed using […] sodium citrate in 50% ethanol followed by quantification using a 96 well spectrophotometer set at an absorbance of 550 nm.

BT549 cells = test: crystal violet (CV) proliferation assay, BT549; conditions: Homo sapiens, BT-549, BT549 (PKCβ1^high, Rb^regative) 2000 cells
Method: as §1

MDAMB436 cells = test: crystal violet (CV) proliferation assay, MDAMB436; conditions: Homo sapiens, MDA-MB-436, MDAMB436 (PKCβ1^low, Rb^negative) 2000 cells
Method: as §1

[1] = system: Rb-proficient MDAMB231 and Rb-deficient BT549 and MDAMB436 cells; test: crystal violet (CV) proliferation assay, TNBC cells (text statements covering several lines); conditions: MDAMB231 and BT549 cells (FIG. 4A and TABLE 1)
Method: as §1

MDAH-2774 cells = test: crystal violet (CV) proliferation assay, MDAH-2774; conditions: Homo sapiens; MDAH-2774 (PKCβ1^high) 1000 cells/well; read-out: Approximate IC50
Method: as §1
(§2) Based on the potent anti-proliferative activity of ENDX-PROTACs TC-Pr-006, TC-Pr-007, TC-Pr -008, and TC-Pr -009 in TNBC cells, the efficacy of these compounds for inhibiting the growth of ovarian cancer cells was tested. This analysis utilized KURAMOCHI cells, which represent the high-grade serous subtype (the most malignant form that accounts for 70% of all ovarian cancers and associates with poor clinical outcome) and MDAH-2774 cells, which represent endometrioid ovarian cancer and accounts for 20% of all ovarian cancer. PKCβ1 was confirmed to be expressed in both ovarian cancer cell line models, with MDAH-2774 cells expressing higher amounts of PKCβ1 compared to KURAMOCHI cells (FIG. 5A). […]

KURAMOCHI cells = test: crystal violet (CV) proliferation assay, KURAMOCHI; conditions: KURAMOSHI (PKCβ1^low) 1000 cells/well; read-out: Approximate IC50
Method: as §1, §2

[2] = system: PKCβ1, E2F1, and Cyclin D1; test: western blot in BT549 and MDAMB436 cells (Example 6); conditions: 1 µM, 24, 48, and 72 hours
Method: TNBC BT549 and MDAMB436 cells were cultured in phenol-red free DMEM/F12 medium supplemented with 10% fetal bovine serum (FBS) and 1% AA. On day 1, cells were plated at a density of 2 x 10^5 BT549 cells or 4 x 10^5 MDAMB436 cells in a 6-well plate (two wells per treatment). The next day, cells were treated with DMSO, 1 µM Pr-9 (positive control), 1 µM Pr-9-1, 1 µM Pr-9-4, or 1 µM ENDX (negative control). Radioimmunoprecipitation Assay (RIPA) protein lysates were collected 24, 48, and 72 hours after treatment.
For western blot analysis, 25 µg of protein lysates were run on Criterion precast 10% Bis-Tris gel, transferred to PVDF membrane, incubated in TBST-5% milk for one hour, and then incubated overnight with PKCβ1 (SC8049, mouse, 1:200), E2F1 (SC251, mouse, 1:250), Cyclin D1 (CS2978, rabbit, 1:1000), or Actin (Sigma A2228, mouse, 1:10,000 or CS8457, rabbit, 1:2000) primary antibodies in TBST-5% BSA solution. Membranes were washed in TBS-T, incubated for one-hour in HRP-linked anti-rabbit or anti-mouse secondary antibodies in TBST-5% milk, and washed in TBS-T. Bands were developed using west-pico or west-femto chemiluminescent substrate reagents.

With `CCC(=C(c1ccc(O)cc1)c1ccc(OCCN(C)C(=O)COCCOCCNC(=O)Cc2ccc3c(c2)CN(C2CCC(=O)NC2=O)C3=O)cc1)c1ccccc1` (centres unmarked) [TC-Pr-009, 2-[2-(2-2-[2-(2,6-dioxopiperidin-3-yl)-1-oxo-2,3-dihydro-1H-isoindol-5-yl]acetamidoethoxy)ethoxy]-N-(2-4-[1-(4-hydroxyphenyl)-2-phenylbut-1-en-1-yl]phenoxyethyl)-N-methylacetamide] the IC50 (MDAMB231 cells) was 131 nM, the IC50 (BT549 cells) was 67 nM and the IC50 (MDAMB436 cells) was 64 nM. For the same compound, the apoptosis [1] was “induced apoptosis”, the IC50 (MDAH-2774 cells) was 1000 to 10000 nM and the IC50 (KURAMOCHI cells) was 1000 to 10000 nM. The PKCβ1 protein levels [2] was “altered to varying extent” and the “protein levels of E2F1 and Cyclin D1” value ([2]; listed as Pr-9) was “clearly reduced”.

— patent publication EP4817688A2, “DEGRADING PKCß1 TO TREAT CANCER” (Mayo Foundation for Medical Education and Research, priority 2020, dated 2022)
